Test results: patent US10258027B2, “Autodissemination of an insect-growth regulator for insect management” (Rutgers, The State University of New Jersey, priority 2010, dated 2019)
Several values for one entry are separate records, joined by “and”; a condition that tells them apart may be missing. Equal entries are not always repeated. Where two headings read alike, the source gives them in different places.

How the values were obtained:
Aedes aegypti = details: cited from earlier work
[1] = tested on: 3rd instar Ae. albopictus; assay: Room trial (31.1 m^3), single-phase station, larval bioassay; type: in vivo, Aedes albopictus
Method: In the room trial, the test arena was scaled-up to a larger area with dimensions of 2.1 (W)×2.6 (H)×5.7 (L) m (31.1 m^3). A station was placed in the center of the room and ovicups with oak infusion and ovistrips were positioned at each corner 30 cm from the walls. Fifty gravid females were introduced for a five day test. The ovistrips and eggs were discarded and the water from each container was tested for insecticidal activity by larval bioassay, with four additional untreated cups as controls. Environmental conditions of 26-28° C., 60-75% RH, and 16L:8D photoperiod. Inhibition of emergence in the cage and room trials was analyzed against their respective controls with a t-test (P≤0.05).
(§1) All insecticidal activity tests were conducted in adult emergence units—450 ml plastic containers with a screen-covered lid and 200 ml of water (water lost via evaporation was replaced before assay). Each container held twenty 3rd instar Ae. albopictus. Test containers were incubated at 26° C. and 16L:8D photoperiod. At 2-day intervals, ground rat chow (30 mg/L) was provided as food, water lost due to evaporation was replenished, dead and emerged individuals were removed, and successful adult emergence was recorded. Incomplete emergence or adults with attached exuviae were recorded as dead.

[2] = tested on: 3rd instar Ae. albopictus; assay: Cage experiment: transfer from females to larval habitat, larval bioassay; type: in vivo, Aedes albopictus; details: 2.2 m^3 cage, 50 gravid females, 5 days, all 36 ovicups; powder formulation on transfer mesh
Method: In the cage experiment, an autodissemination station equipped with a pyriproxyfen-treated transfer mesh and 450 ml of oak leaf infusion water was centered in a cubic 2.2 m^3 cage. A 360 ml capacity plastic cup was placed in each cage corner 15 cm from the walls. Each of the four cups was filled with 200 ml tap water and oviposition paper strips aligned as described above. Controls used a station with an untreated transfer mesh. Fifty gravid females were then introduced into the cage. After five days, the test was terminated, oviposition papers and eggs discarded, and containers were removed and the water assessed for pyriproxyfen transfer by larval bioassay (see ‘insecticide bioassays’ below). There were three treatment and one control cage per experiment and the experiment was repeated three times, providing a total of 36 test and 12 control ovicups for bioassay. […]
as §1, with “Each container held twenty 3rd instar Ae. albopictus. Test containers were incubated at 26° C. and 16L:8D photoperiod.” left out

Ae. albopictus [3] = assay: Green house assay, biphasic ADS; type: in vivo, Aedes albopictus
Method: (§2) Larval bioassays for pyriproxyfen were conducted in adult emergence units (450 ml plastic Deli containers lid on) under the standard laboratory conditions as described above under the heading, Mosquito colony and maintenance. Each container received twenty early 3rd instar Ae. albopictus in 200 ml sample water. Larvae were inoculated gently using dropper before placing the lid on. Five slots (4 cm each) were cut into the lid with a clean blade for aeration. Larval food (30 mg yeast/L) was provided twice a week which was freshly prepared every time. An additional lab control group was setup in triplicate using […] water. The bioassays were conducted in the sequence of lab control and treatment to minimize the chance of contamination. Water lost due to the evaporation during bioassay was replenished. Adult emergence and pupal mortality were accessed after there was no live lava or pupa in the water. Incomplete emergence or adult with attached exuvia was recorded as pupal death. If lab control had mortality higher than 20% in larval or pupal stages, results were discarded and the experiment was repeated. The experiments were conducted under environmental conditions of 26-28° C., 60-75% RH and LD 16:8 h.
Green house with 2 bays (8×5×2.5 m each) was used for the semi-field assay. One ADS was positioned in the center of each bay and 6 Deli cups (450 mL, black painted from outside) containing 250 mL water each were setup as shown in FIG. 5 and 10% sugar solution was provided in a plastic cup with cotton wick. In each bay, 100 gravid mosquitoes (2 days post blood feeding) were released after the setup of ADS and oviposition containers. The containers were collected and sent for lab bioassay as described above after the 5 day experiment. […] The temperature of 22-30° C. and relative humidity of 45-70% were recorded during the experiment. […]
Efficacy of pyriproxyfen was expressed as mean + standard error % of pupal mortality, which was corrected with control using Abbott's formula (Abbott W. S. (1925) J Econ Entomol; 18: 265-267). […]

Ae. albopictus [4] = assay: Room assay (31 m^3), biphasic dual treatment ADS; type: in vivo, Aedes albopictus
Method: as §2
The test area was scaled up to a larger room (31 m^3) measuring 2.1 m in width, 5.7 m in length and 2.6 m in height. A station was placed in the center of the room and 10 Deli cups (450 mL, black painted from outside) containing 250 ml water were positioned 30 cm from the walls along each side of the room. Fifty gravid females were introduced for a 5-day test. The experiment was conducted under environmental conditions of 26-28° C., 60-75% RH and LD 16:8 h. The cups then were tested for pyriproxyfen activity using larval bioassay as described above. Ten additional untreated cups were included as controls. The pupal mortality in the room trials was analyzed against their respective controls with a t-test (P≤0.05).

container mosquitoes = details: modified sticky trap dusted with manually grained 5% pyriproxyfen powder; cited from earlier work
Ae. albopictus [5] = assay: Larvicidal LC50 of pyriproxyfen; details: unpublished data
[6] = tested on: 3rd instar Ae. albopictus; assay: Venereal transfer from contaminated males to females, larval bioassay; type: in vivo, Aedes albopictus; details: venereally acquired pyriproxyfen transferred to water-holding containers
Method: This experiment determined whether contaminated mosquitoes could transfer pyriproxyfen to uncontaminated individuals via mating behaviors. To ensure virginity, pupae were individually transferred to 50 ml centrifuge tubes until emergence, and then caged by gender before testing 5-7 days post-emergence. Adult males were exposed to pyriproxyfen-treated filter paper (8×10 cm Whatman No. 1) lining a 50 ml test tube. The paper was coated with 1.5 ml of corn oil as a sticker, blotted to remove excess oil, and then dusted with our pyriproxyfen powder formulation at 0.26 mg/cm of a.i. After ten minutes of exposure, males were transferred from the tube by aspirator to mating containers (450 ml capacity, 7.5 cm depth) covered with mosquito-proof mesh, and allowed to mate with uncontaminated females in pairs. […]
as §1, with “Each container held twenty 3rd instar Ae. albopictus. Test containers were incubated at 26° C. and 16L:8D photoperiod.” left out

Ae. albopictus [7] = details: reported as low as; Gaugler 2012, Sihuincha 2005; cited from earlier work
Ae. albopictus [8] = assay: Attachment and persistence of IGR formulations assay, biphasic ADS (residue analysis and larval bioassay); type: in vivo, Aedes albopictus
Excerpt: A biphasic autodissemination station (ADS) was developed to enhance attraction and contamination of gravid mosquitoes based on the previous version as described in the prior examples with modifications on the transfer chamber, which provided the attracted gravid mosquitoes a unidirectional path and biphasic formulations. The ADS consists of two main parts comprising of a water reservoir at the bottom (adapted from previous version), above which was a transfer chamber with a unidirectional cone inserted in the transfer chamber (FIGS. 12, A & B). The reservoir could hold 600 mL water, which contains dried shredded oak leaves and other materials producing attractants to the gravid mosquitoes. There were overflow protection holes located in the upper part of the reservoir as described in the previous examples. The transfer chamber was constructed with a cardboard mailing tube (101.5×155 mm; Office Depot, N.J. USA), a cotton mesh fabric (39 openings/cm^2) secured within the chamber base by hot glue, a vertical fabric band [43] (20 mm width) glued on top portion inside the transfer chamber and a horizontal flat ring (20 mm width) mounted on the top of the chamber (FIG. 12, B) to provide the base for powder band [46]. […] The spacer size was determined by preliminary study in which the gap size allowed maximum contamination of mosquitoes and minimum number of mosquitoes trapped. […]

Ae. aegypti adults = details: pyriproxyfen dusted plastic containers, public cemetery; cited from earlier work
gravid mosquitoes = assay: Field studies, biphasic ADS; type: in vivo
gravid female = assay: Serial transfer study, biphasic ADS; type: in vivo; details: right after it exited the ADS

CC(COc1ccc(Oc2ccccc2)cc1)Oc1ccccn1 (stereo not drawn) [pyriproxyfen, 2-[1-methyl-2-(4-phenoxyphenoxy)ethoxy] pyridine]
LC50 (Aedes aegypti; Aedes aegypti L.): 0.023 ppb | LC50 (Aedes aegypti; reported as low as, Gaugler 2012, Sihuincha 2005): 0.012 ppb | activity relative to temephos (Aedes aegypti; times the activity of temephos): 200 × | pupal mortality ([1]; 31 m^3 room, previous (uniphase) station, 4 oviposition containers with 200 ml water): 81% | smallest reduction in adult emergence among ovicups ([1]; 31.1 m^3 room): 75% | inhibition of adult emergence ([1]; 31.1 m^3 room, 50 gravid females, 5 days, 4 ovicups, powder formulation): 81.25%±2.39 | inhibition of adult emergence [2]: 100% | average pupal mortality (Ae. albopictus [3]; 6 containers per bay (100 m^3), 100 gravid females, 5 days): 57.1+11.4% and 57.1% | containers to which pyriproxyfen was transferred (contamination rate) (Ae. albopictus [3]; 12 containers tested): 91.7% and 91.6% | pupal mortality of the cups with low mortality (Ae. albopictus [3]; cups in area with human disturbance, low RH, less shade): 0-30% and 10-30% | emergence inhibition in each cup (Ae. albopictus [4]; 31 m^3 room, 50 gravid females, 10 oviposition cups): 100% | pupal mortality in each of the 10 oviposition cups (Ae. albopictus [4]; 31.1 m^3 room, 50 gravid mosquitoes, 5 days): 100% | pupal mortality in each of the 10 oviposition cups (Ae. albopictus [4]; second prototype (oil and powder bands on one plate)): 100% | mortality (container mosquitoes): 40-70% | LC50 (Ae. albopictus [5]): 0.012 ppb | inhibition of emergence [6]: 48.33±5.87% | LC50 (Ae. albopictus [7]): 0.012 ppb | pupal mortality (Ae. albopictus [8]; 24 h post exposure): 96+1.7% and 96.7% | emergence inhibition (Ae. albopictus [8]; up to 8 h post exposure, one mosquito per 250 mL water): 100% | emergence inhibition (Ae. aegypti adults): 42-98% | containers contaminated (gravid mosquitoes; different field study, 2012, variable pupal mortality): more than 60% | distance of pyriproxyfen transfer (gravid mosquitoes; field study): 200 m | pupal mortality (gravid mosquitoes; field study, container with 250 ml water at 200 m): 100% | containers contaminated with 100% mortality by one gravid female (gravid female): at least 3 containers
